According to ChEMBL document CHEMBL6134817, “Novel gut-restricted bivalent agonists targeting mucosal 5-HT4R: Design, synthesis, and biological evaluation” (Eur J Med Chem, 2025):

How the values were obtained:
[1] = target: T1, 5-hydroxytryptamine receptor 4 (Homo sapiens, UniProt Q13639); assay: Agonist activity at full-length human 5-HT4R stably expressed in HEK293 cells assessed as increase in intracellular cAMP level incubated for 30 mins under dark condition by reporter gene assay; type: functional, cell-based
[2] = target: T1, 5-hydroxytryptamine receptor 4; assay: Agonist activity at full-length human 5-HT4R stably expressed in HEK293 cells assessed as increase in intracellular cAMP level incubated for 30 mins under dark condition by reporter gene assay relative to control; type: functional, cell-based
[3] = target: T1, 5-hydroxytryptamine receptor 4; assay: Displacement of [3H]-GR113808 from full-length human 5-HT4R stably expressed in HEK293 cell membrane by MicroBeta2 Reader analysis; type: cell membranes
[4] = target: Voltage-gated inwardly rectifying potassium channel KCNH2 (Homo sapiens, UniProt Q12809); assay: Inhibition of hERG; type: toxicity
[5] = Apparent permeability coefficient of compound at 10 uM incubated for 4 hrs by PAMPA; type: ADME
[6] = Permeability of compound assessed as compound recovery at 10 uM incubated for 4 hrs by PAMPA; type: ADME; conditions: read-out: Drug recovery

T1 sequence (Q13639 whole entry): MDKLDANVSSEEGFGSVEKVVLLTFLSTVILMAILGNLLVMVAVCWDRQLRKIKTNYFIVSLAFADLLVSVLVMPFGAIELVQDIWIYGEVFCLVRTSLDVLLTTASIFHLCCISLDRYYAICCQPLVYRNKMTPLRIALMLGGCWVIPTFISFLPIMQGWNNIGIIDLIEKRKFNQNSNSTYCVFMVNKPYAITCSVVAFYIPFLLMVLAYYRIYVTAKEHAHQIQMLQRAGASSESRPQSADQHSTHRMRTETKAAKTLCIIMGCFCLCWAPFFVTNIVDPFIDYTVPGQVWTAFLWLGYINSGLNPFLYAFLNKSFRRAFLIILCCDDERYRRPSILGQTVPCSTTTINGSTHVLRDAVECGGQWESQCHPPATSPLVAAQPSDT
Voltage-gated inwardly rectifying potassium channel KCNH2, sequence (Q12809 whole entry): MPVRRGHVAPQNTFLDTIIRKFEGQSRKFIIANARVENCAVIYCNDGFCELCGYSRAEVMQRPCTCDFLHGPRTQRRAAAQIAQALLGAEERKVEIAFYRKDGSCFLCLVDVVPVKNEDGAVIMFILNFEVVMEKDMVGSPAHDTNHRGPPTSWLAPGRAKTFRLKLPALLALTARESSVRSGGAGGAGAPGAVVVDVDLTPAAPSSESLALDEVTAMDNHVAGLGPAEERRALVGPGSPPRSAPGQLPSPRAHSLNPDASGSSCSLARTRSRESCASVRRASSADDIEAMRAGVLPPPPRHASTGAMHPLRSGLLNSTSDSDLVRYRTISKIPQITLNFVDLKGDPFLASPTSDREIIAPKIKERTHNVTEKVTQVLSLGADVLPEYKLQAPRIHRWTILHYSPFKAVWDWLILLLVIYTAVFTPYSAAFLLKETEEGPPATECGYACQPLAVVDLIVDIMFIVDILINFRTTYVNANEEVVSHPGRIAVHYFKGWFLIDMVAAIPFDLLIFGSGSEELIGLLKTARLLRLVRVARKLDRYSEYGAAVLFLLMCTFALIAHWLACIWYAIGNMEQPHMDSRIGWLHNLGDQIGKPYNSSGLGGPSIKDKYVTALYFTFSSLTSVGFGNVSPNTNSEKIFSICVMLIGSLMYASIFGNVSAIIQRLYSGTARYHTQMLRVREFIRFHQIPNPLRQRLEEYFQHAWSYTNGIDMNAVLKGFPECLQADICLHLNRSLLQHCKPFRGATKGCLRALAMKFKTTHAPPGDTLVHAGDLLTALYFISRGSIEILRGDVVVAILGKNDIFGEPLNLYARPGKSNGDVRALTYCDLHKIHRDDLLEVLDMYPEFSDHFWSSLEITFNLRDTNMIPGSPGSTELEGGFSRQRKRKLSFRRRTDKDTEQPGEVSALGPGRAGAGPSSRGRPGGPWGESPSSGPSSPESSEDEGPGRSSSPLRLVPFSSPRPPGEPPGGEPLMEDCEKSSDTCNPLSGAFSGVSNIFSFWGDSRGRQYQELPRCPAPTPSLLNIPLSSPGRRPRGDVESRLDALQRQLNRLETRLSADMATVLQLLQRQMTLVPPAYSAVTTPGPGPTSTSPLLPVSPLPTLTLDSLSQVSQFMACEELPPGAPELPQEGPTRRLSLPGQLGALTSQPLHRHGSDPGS

EC50 [1] [nM]	Efficacy ([2]; filed as agonist) [%]	SMILES	further results
2.08	108	Nc1c(Cl)cc(C(=O)NC2CCN(CCC(=O)NCCOCCOCCNC(=O)N[C@H]3CC[C@@H](NC(=O)NCCOCCOCCNC(=O)CCN4CCC(NC(=O)c5cc(Cl)c(N)c6c5OCC6)CC4)CC3)CC2)c2c1CCO2	–
7.08	127	Nc1c(Cl)cc(C(=O)NC2CCN(CCC(=O)NCCOCCOCCNC(=O)N3CCN(C(=O)NCCOCCOCCNC(=O)CCN4CCC(NC(=O)c5cc(Cl)c(N)c6c5OCC6)CC4)CC3)CC2)c2c1CCO2	–
2.99	130	Nc1c(Cl)cc(C(=O)NC2CCN(CCC(=O)NCCOCCOCCNC(=O)C3(C(=O)NCCOCCOCCNC(=O)CCN4CCC(NC(=O)c5cc(Cl)c(N)c6c5OCC6)CC4)CCCC3)CC2)c2c1CCO2	–
5.18	89.7	Nc1c(Cl)cc(C(=O)NC2CCN(CCNC(=O)CCOCCOCCNC(=O)NCCCCNC(=O)NCCOCCOCCNC(=O)CCN3CCC(NC(=O)c4cc(Cl)c(N)c5c4OCC5)CC3)CC2)c2c1CCO2	–
2.33	92.4	Nc1c(Cl)cc(C(=O)NC2CCN(CCCC(=O)NCCOCCOCCNC(=O)NCCCCNC(=O)NCCOCCOCCNC(=O)CCCN3CCC(NC(=O)c4cc(Cl)c(N)c5c4OCC5)CC3)CC2)c2c1CCO2	–
0.4	107	Nc1c(Cl)cc(C(=O)NCC2CCN(CCC(=O)NCCOCCOCCNC(=O)NCCCCNC(=O)NCCOCCOCCNC(=O)CCN3CCC(CNC(=O)c4cc(Cl)c(N)c5c4OCC5)CC3)CC2)c2c1CCO2	Ki [3]: 54.8 nM
6.82	122	Nc1c(Cl)cc(C(=O)NC2CCN(CCC(=O)NCCOCCOCCNC(=O)N[C@H]3CC[C@H](NC(=O)NCCOCCOCCNC(=O)CCN4CCC(NC(=O)c5cc(Cl)c(N)c6c5OCC6)CC4)CC3)CC2)c2c1CCO2	–
3	116	Nc1c(Cl)cc(C(=O)NC2CCN(CCC(=O)NCCOCCOCCNC(=O)C3(C(=O)NCCOCCOCCNC(=O)CCN4CCC(NC(=O)c5cc(Cl)c(N)c6c5OCC6)CC4)CCCCC3)CC2)c2c1CCO2	–
1.07	119	Nc1c(Cl)cc(C(=O)NC2CCN(CCC(=O)NCCOCCOCCOCCNC(=O)NCCOCCOCCOCCNC(=O)CCN3CCC(NC(=O)c4cc(Cl)c(N)c5c4OCC5)CC3)CC2)c2c1CCO2	–
1.39	104	Nc1c(Cl)cc(C(=O)NCC2CCN(CCCCCC(=O)NCCOCCOCNC(=O)N[C@H]3CC[C@H](NC(=O)NCOCCOCCNC(=O)CCCCCN4CCC(CNC(=O)c5cc(Cl)c(N)c6c5OCC6)CC4)CC3)CC2)c2c1CCO2	–
2.5	128	Nc1c(Cl)cc(C(=O)NC2CCN(CCC(=O)NCCOCCOCCNC(=O)C3(C(=O)NCCOCCOCCNC(=O)CCN4CCC(NC(=O)c5cc(Cl)c(N)c6c5OCC6)CC4)CC3)CC2)c2c1CCO2	–
3.71	119	Nc1c(Cl)cc(C(=O)NC2CCN(CCC(=O)NCCOCCNC(=O)NCCCCNC(=O)NCCOCCNC(=O)CCN3CCC(NC(=O)c4cc(Cl)c(N)c5c4OCC5)CC3)CC2)c2c1CCO2	–
0.85	123	Nc1c(Cl)cc(C(=O)NC2CCN(CCC(=O)NCCOCCNC(=O)NCCOCCNC(=O)CCN3CCC(NC(=O)c4cc(Cl)c(N)c5c4OCC5)CC3)CC2)c2c1CCO2	–
81.4	102	Nc1c(Cl)cc(C(=O)NCCC2CCN(CCC(=O)NCCOCCOCCNC(=O)NCCCCNC(=O)NCCOCCOCCNC(=O)CCN3CCC(CCNC(=O)c4cc(Cl)c(N)c5c4OCC5)CC3)CC2)c2c1CCO2	–
3.81	106	Nc1c(Cl)cc(C(=O)NC2CCN(CCCCCC(=O)NCCOCCOCCNC(=O)NCCCCNC(=O)NCCOCCOCCNC(=O)CCCCCN3CCC(NC(=O)c4cc(Cl)c(N)c5c4OCC5)CC3)CC2)c2c1CCO2	–
0.07	95.3	CN(CCOCCNC(=O)NCCOCCN(C)C(=O)CCCN1CCC(NC(=O)c2cc(Cl)c(N)c3c2OCC3)CC1)C(=O)CCCN1CCC(NC(=O)c2cc(Cl)c(N)c3c2OCC3)CC1	Ki [3]: 98.9 nM
10.5	89.8	Nc1c(Cl)cc(C(=O)NC2CCN(CCC(=O)NCCOCCOCCNC(=O)Nc3ccc(NC(=O)NCCOCCOCCNC(=O)CCN4CCC(NC(=O)c5cc(Cl)c(N)c6c5OCC6)CC4)cc3)CC2)c2c1CCO2	–
3.1	85.6	Nc1c(Cl)cc(C(=O)NC2CCN(CCNCCOCCOCCNC(=O)N[C@H]3CCCC[C@@H]3NC(=O)NCCOCCOCCNC(=O)CCN3CCC(NC(=O)c4cc(Cl)c(N)c5c4OCC5)CC3)CC2)c2c1CCO2	–
–	110	COCCCN1CCC(NC(=O)c2cc(Cl)c(N)c3c2OCC3)CC1 [PRUCALOPRIDE]	IC50 [4]: 4100 nM; Papp at 4 h, 10 µM [5]: < 0.0185 ×10⁻⁶ cm/s; recovery at 4 h, 10 µM [6]: 92.4%
0.33	88.6	Nc1c(Cl)cc(C(=O)NC2CCN(CCCC(=O)NCCOCCNC(=O)NCCOCCNC(=O)CCCN3CCC(NC(=O)c4cc(Cl)c(N)c5c4OCC5)CC3)CC2)c2c1CCO2	Ki [3]: 75 nM

EC50 [1] [nM]	Efficacy ([2]; filed as agonist) [%]	SMILES	further results
747	125	Nc1c(Cl)cc(C(=O)NC2CCN(CCC(=O)NCCCCCCCCNC(=O)NCCCCNC(=O)NCCCCCCCCNC(=O)CCN3CCC(NC(=O)c4cc(Cl)c(N)c5c4OCC5)CC3)CC2)c2c1CCO2	–
6.71	125	Nc1c(Cl)cc(C(=O)NC2CCN(CCC(=O)NCCOCCOCCOCCNC(=O)NCCCCNC(=O)NCCOCCOCCOCCNC(=O)CCN3CCC(NC(=O)c4cc(Cl)c(N)c5c4OCC5)CC3)CC2)c2c1CCO2	–
3.02	102	Nc1c(Cl)cc(C(=O)NC2CCN(CCCCC(=O)NCCOCCOCCNC(=O)NCCCCNC(=O)NCCOCCOCCNC(=O)CCCCN3CCC(NC(=O)c4cc(Cl)c(N)c5c4OCC5)CC3)CC2)c2c1CCO2	–
8.05	122	Nc1c(Cl)cc(C(=O)NC2CCN(CCC(=O)NCCOCCOCCNC(=O)C3(C(=O)NCCOCCOCCNC(=O)CCN4CCC(NC(=O)c5cc(Cl)c(N)c6c5OCC6)CC4)CCC3)CC2)c2c1CCO2	–
6.69	98	Nc1c(Cl)cc(C(=O)NC2CCN(CCC(=O)NCCOCCOCCNC(=O)/C=C/C(=O)NCCOCCOCCNC(=O)CCN3CCC(NC(=O)c4cc(Cl)c(N)c5c4OCC5)CC3)CC2)c2c1CCO2	–
2.66	115	Nc1c(Cl)cc(C(=O)NC2CCN(CCC(=O)NCCOCCOCCNC(=O)N[C@H]3C[C@H](NC(=O)NCCOCCOCCNC(=O)CCN4CCC(NC(=O)c5cc(Cl)c(N)c6c5OCC6)CC4)C3)CC2)c2c1CCO2	–
6.46	112	Nc1c(Cl)cc(C(=O)NC2CCN(CCC(=O)NCCOCCOCCNC(=O)NCCCCNC(=O)NCCOCCOCCNC(=O)CCN3CCC(NC(=O)c4cc(Cl)c(N)c5c4OCC5)CC3)CC2)c2c1CCO2	Ki [3]: 197 nM
5.88	125	Nc1c(Cl)cc(C(=O)NC2CCN(CCC(=O)NCCCCCCCCNC(=O)NCCNC(=O)NCCCCCCCCNC(=O)CCN3CCC(NC(=O)c4cc(Cl)c(N)c5c4OCC5)CC3)CC2)c2c1CCO2	–
0.17	113	Nc1c(Cl)cc(C(=O)NCC2CCN(CCCCCNC(=O)CCOCCOCCNC(=O)NCCCCNC(=O)NCCOCCOCCC(=O)NCCCCCN3CCC(CNC(=O)c4cc(Cl)c(N)c5c4OCC5)CC3)CC2)c2c1CCO2	Ki [3]: 1.49 nM
11.4	122	Nc1c(Cl)cc(C(=O)NC2CCN(CCC(=O)NCCOCCOCCNC(=O)N3CC4(C3)CN(C(=O)NCCOCCOCCNC(=O)CCN3CCC(NC(=O)c5cc(Cl)c(N)c6c5OCC6)CC3)C4)CC2)c2c1CCO2	–
> 10000	–	O=C(CCN1CCC(COc2noc3c(O[C@@H]4CCOC4)cccc23)CC1)NCCOCCOCCNC(=O)NCCCCNC(=O)NCCOCCOCCNC(=O)CCN1CCC(COc2noc3cccc(O[C@@H]4CCOC4)c23)CC1	Efficacy [2]: 0.16%
4.71	116	Nc1c(Cl)cc(C(=O)NC2CCN(CCC(=O)NCCOCCOCCNC(=O)CCC(=O)NCCOCCOCCNC(=O)CCN3CCC(NC(=O)c4cc(Cl)c(N)c5c4OCC5)CC3)CC2)c2c1CCO2	–
0.95	103	Nc1c(Cl)cc(C(=O)NC2CCN(CCC(=O)NCCOCCOCCNC(=O)NCCOCCOCCNC(=O)CCN3CCC(NC(=O)c4cc(Cl)c(N)c5c4OCC5)CC3)CC2)c2c1CCO2	–
3.28	123	Nc1c(Cl)cc(C(=O)NC2CCN(CCC(=O)NCCOCCOCCNC(=O)C(O)C(O)C(=O)NCCOCCOCCNC(=O)CCN3CCC(NC(=O)c4cc(Cl)c(N)c5c4OCC5)CC3)CC2)c2c1CCO2 (configuration not stated)	–
43.6	102	COc1cc(N)c(Cl)cc1C(=O)NC1CCN(CCC(=O)NCCOCCOCCNC(=O)NCCCCNC(=O)NCCOCCOCCNC(=O)CCN2CCC(NC(=O)c3cc(Cl)c(N)cc3OC)CC2)CC1	–
5.67	110	Nc1c(Cl)cc(C(=O)NC2CCN(CCC(=O)NCCOCCOCCNC(=O)c3ccc(C(=O)NCCOCCOCCNC(=O)CCN4CCC(NC(=O)c5cc(Cl)c(N)c6c5OCC6)CC4)cc3)CC2)c2c1CCO2	–
> 10000	47.8	CC(C)n1nc(-c2nnc(C3CCN(CCC(=O)NCCOCCOCCNC(=O)NCCCCNC(=O)NCCOCCOCCNC(=O)CCN4CCC(c5nnc(-c6nn(C(C)C)c7ccccc67)o5)CC4)CC3)o2)c2ccccc21	–
5.46	129	CC(C)(C(=O)NCCOCCOCCNC(=O)CCN1CCC(NC(=O)c2cc(Cl)c(N)c3c2OCC3)CC1)C(=O)NCCOCCOCCNC(=O)CCN1CCC(NC(=O)c2cc(Cl)c(N)c3c2OCC3)CC1	–
4.91	104	Nc1c(Cl)cc(C(=O)NC2CCN(CCC(=O)NCCOCCOCCNC(=O)COCC(=O)NCCOCCOCCNC(=O)CCN3CCC(NC(=O)c4cc(Cl)c(N)c5c4OCC5)CC3)CC2)c2c1CCO2	–
17.6	90.9	Nc1c(Cl)cc(C(=O)NC2CCN(CCC(=O)NCCCCCCCCNC(=O)NCCCCCCNC(=O)NCCCCCCCCNC(=O)CCN3CCC(NC(=O)c4cc(Cl)c(N)c5c4OCC5)CC3)CC2)c2c1CCO2	–
